Data as given in patent US9873699B1, “Anti-cancer agents” (KING SAUD UNIVERSITY, priority 2017, dated 2018).

What follows are molecules tested on FaDu hypopharyngeal tumor cells (assay: Cytotoxicity assay (MTT)). Conditions: 48 h.
Type: cell-based
Method: The synthesized series of compounds 4a-m stock solution were prepared by dissolved in DMSO (Sigma-Aldrich, St. Louis, Mo., USA) or dH2O. The stock solutions were diluted with cell culture medium and used as a working solution. Different concentration of working solution was exposed to 5 to 7×10^3 cells seeded 96 well plates after 24 h incubation. DMSO/dH2O was used as the solvent control. Nuclear morphological changes were monitored and photographed following treatment of synthesized compounds for 48 h using inverted microscope (Carl Zeiss, Jena, Germany). After incubation, plates were centrifuged and washed with cell culture medium. Subsequently, 20 μL of MTT solution [5 mg/mL in phosphate-buffered saline (PBS)] was added to each well, and the plates were protected from light and kept in CO2 incubator at 37° C. for 4 h. The purple color formazan product was formed and dissolved in 100 μL of DMSO. The absorbance was monitored at 570 nm (measurement) and 630 nm (reference) using a 96 well plate reader (Bio-Rad, Hercules, Calif., USA). Data were collected for four replicates each and used to calculate the median effect dose or concentration, i.e., IC50 using the Calcusyn software.
The cytotoxicity of synthesized compounds 4(a-m) on FaDu hypopharyngeal tumor cells was assessed for 48 h, in comparison with the commercial anti-cancer drug bleomycin under identical conditions (FIGS. 6&7). […] The percentage of apoptotic cells is indicated by the histograms and the data shown are the means from triplicates. Vertical bars represent standard error of the mean.

Row | Molecule | cytotoxicity against cancer cells (in words)
1 | 5′-benzyl-4′-(2,4-dichloropheynyl)-5-spiro[3,2′]oxindolopyrrolidino-4′-(2,4-dichlorophenyl-1″-styryl-5-benzylidene-spiro[3′.3″]piperidi-4″-one [Compound 4e] | good cytotoxicity
2 | 5′-benzyl-4′-(4-bromopheynyl)-5-spiro[3,2′]oxindolopyrrolidino-4′-(4-bromophenyl-1″-styryl-5-benzylidene-spiro[3′.3″]piperidi-4″-one [Compound 4c] | good cytotoxicity
3 | 5′-benzyl-5-spiro[3,2′]oxindolopyrrolidino-4′-(methylphenyl)-1″-styryl-5-benzylidene-spiro[3′.3″]piperidi-4″-one [Compound 4a] | excellent cytotoxic property
4 | O=C1Nc2ccccc2C12NC(Cc1ccccc1)C(c1ccccc1Cl)C21CN(C=Cc2ccccc2)CC(=Cc2ccccc2Cl)C1=O (stereo not drawn) [Compound 4d] | good cytotoxicity
5 | Cc1ccccc1C=C1CN(C=Cc2ccccc2)CC2(C1=O)C(c1ccccc1C)C(Cc1ccccc1)NC21C(=O)Nc2ccccc21 (stereo not drawn) [Compound 4g, 5′-benzyl-4′-(2-tolyl)-5-spiro[3,2′]oxindolopyrrolidino-4′-(2-methylphenyl)-1″-styryl-5-benzylidene-spiro[3′.3″]piperidi-4″-one] | excellent cytotoxic property
6 | Cc1cccc(C=C2CN(C=Cc3ccccc3)CC3(C2=O)C(c2cccc(C)c2)C(Cc2ccccc2)NC32C(=O)Nc3ccccc32)c1 (stereo not drawn) [Compound 4h, 5′-benzyl-4′-(3-tolyl)-5-spiro[3,2′]oxindolopyrrolidino-4′-(3-methylphenyl)-1″-styryl-5-benzylidene-spiro[3′.3″]piperidi-4″-one] | good cytotoxicity
